# Peptide text beside a SMILES is read from it.
# How the values were obtained:
# [1] = test system: HIV-1 NL4-3 WT; assay: Inhibition of T20-resistant HIV-1 variants panel: WT; format: cell-based
# Protocol: (§1) The inhibition of peptides on the HIV-1 entry was determined by single-cycle infection assay as described previously. Briefly, HIV-1 pseudovirus was generated by cotransfecting 293 T cells with an Env-expressing plasmid and a backbone plasmid pSG3^Δenv that encodes Env-defective, luciferase-expressing HIV-1 genome. The supernatants were harvested and filtered 48 h after transfection and 50% tissue culture infectious dose (TCID50) was determined in TZM-bl cells. The peptides were prepared with 3-fold dilutions and mixed with 100 TCID50 viruses and then incubated 1 h at room temperature. The mixture was added to TZM-bl cells (10^4/well) and incubated 48 h at 37°C. The luciferase activity was measured using luciferase assay reagents and a Luminescence Counter (Promega).
# [2] = molecular target: T1, six-helical bundle (6-HB) of N36 and biotinylated-C34 (Human immunodeficiency virus type 1 group M subtype B, UniProt P04578); assay: Inhibition of 6-HB formation, NC-1 capture ELISA; format: biochemical, HIV-1; details: biotinylated-C34 0.1 μM, N36 0.1 μM, 30 min room temperature, 3 independent experiments
# T1 construct: made in house; host or cells: chemical synthesis (solid-phase FMOC), no expression host
# Protocol: The 6-HB core-specific monoclonal antibody NC-1 was obtained from Dr. Shibo Jiang in the New York Blood Center (New York, NY) through the ARRRP, Division of AIDS, NIAID, National Institute of Health. The inhibitory activity of SC29EK or MT-SC29EK on the 6-HB formation was measured by a modified ELISA as previously described. Briefly, a 96-well polystyrene plate was coated with 2 μg/ml NC-1 in 0.1 M Tris buffer (pH 8.8). A tested peptide at graded concentrations was mixed with the biotinylated-C34 (0.1 μM) and incubated with N36 (0.1 μM) at room temperature for 30 min. The mixture was then added to the NC-1-coated plate, followed by incubation for 30 min and washing with a washing buffer (PBS containing 0.1% Tween 20) three times. Then horseradish peroxidase (HRP)-labeled streptavidin (Invitrogen) and the substrate 3,3,5,5- tetramethylbenzidine (Sigma) were sequentially added. Absorbance at 450 nm (A450) was measured using an ELISA reader.
# [3] = test system: HIV-1 NL4-3 Q40H; assay: Inhibition of T20-resistant HIV-1 variants: Q40H; format: cell-based
# Protocol: as §1
# [4] = test system: wild-type HIV-1NL4-3; format: cell-based; details: wild-type HIV-1NL4-3, 100 TCID50, TZM-bl cells, two days, luciferase; mean ± SD of three independent experiments; SD; read-out: IC50 Replication
# Protocol: The inhibition of peptides on HIV-1 replication was determined by a molecular cloned wild-type HIV-1NL4–3. In brief, the virus stock was harvested and quantified 48 h post-transfection. 100 TCID50 viruses were used to infect TZM-bl cells in the presence or absence of serially diluted peptides. Two days post-infection, the cells were harvested and lysed in reporter lysis buffer and the luciferase activity was measured as described above.
# [5] = molecular target: T2, NHR peptide N36 (HIV-1 gp41) (Human immunodeficiency virus type 1 group M subtype B, UniProt P04578); assay: CD thermal denaturation of 6-HB formed by CHR peptide and N36; format: binding; details: CHR peptide + N36, each 10 μM in PBS pH 7.2; CD at 222 nm, 20-98°C
# T2 construct: made in house; host or cells: chemical synthesis (solid-phase FMOC), no expression host
# Protocol: (§2) CD spectroscopy was performed according to our protocols described previously. […] The final concentration of each peptide was 10 μM in PBS buffer (pH 7.2). The CD spectra were acquired on a Jasco spectropolarimeter (model J-815) using a 1 nm bandwidth with a 1 nm step resolution from 195 to 260 nm at room temperature. The spectra were corrected by subtraction of a blank corresponding to the solvent. Data were averaged over three accumulations. The α-helical content was calculated from the CD signal by dividing the mean residue ellipticity [θ] at 222 nm by the value expected for 100% helix formation (-33,000 degrees.cm^2.dmol^-1). The thermal denaturation experiment was performed by monitoring the change in ellipticity [θ] at 222 nm at the increasing temperature (20–98°C) using temperature controller. The temperature was increased at a rate of 1.2°C per min; data were acquired at a 1 nm bandwidth at 222 nm at a frequency of 0.25 Hz. The melting curve was smoothened, and the midpoint of the thermal unfolding transition (Tm) values were taken as the maximum of the derivative d [θ]222/dT. The Tm value was detected at a peptide concentration of 10 μM in PBS buffer.
# [6] = test system: HIV-1 NL4-3 D36S/V38M; assay: Inhibition of T20-resistant HIV-1 variants: D36S/V38M; format: cell-based
# Protocol: as §1
# [7] = molecular target: T3, N36 mutant I37T/N43K (Human immunodeficiency virus type 1 group M subtype B, UniProt P04578, I548T/N554K); assay: CD thermal denaturation of 6-HB formed with N36 mutant I37T/N43K; format: binding, HIV-1; details: CHR peptide + N36 I37T/N43K mutant, each 10 μM in PBS
# T3 construct: A panel of N36-based peptides carrying a single (I37T, V38A, Q40H, N43K) or double (I37T/N43K and V38A/N42T) NHR mutations; made in house; host or cells: chemical synthesis (solid-phase FMOC), no expression host
# Protocol: as §2
# [8] = test system: HIV-1 NL4-3 I37T; assay: Inhibition of T20-resistant HIV-1 variants: I37T; format: cell-based
# Protocol: as §1
# [9] = test system: molecular clone of HIV-1NL4-3; assay: In vitro selection of HIV-1 resistance in MT-4 cells; format: cell-based; details: 1.5-2 fold escalating concentrations, after 35 generations of passage over 7 months
# Protocol: The in vitro selection of HIV-1 resistance to peptide inhibitors was performed as described previously. Briefly, MT-4 cells were seeded at 1 × 10^4 in RPMI 1640 medium containing 10% fetal bovine serum on 12-well plates. The molecular clone of HIV-1NL4–3 was used to infect the cells in the presence or absence of diluted peptide inhibitors (SC29EK, MT-SC29EK, SC22EK and MT-SC22EK). The cells were incubated at 37°C with 5% CO2 until an extensive cytopathic effect was observed. The culture supernatants were harvested and used for next passage on fresh MT-4 cells with 1.5-2 fold increasing concentrations of peptide. Cells and supernatant were harvested at regular time points and stored at -80°C.
# [10] = test system: N36 mutant V38A; assay: CD thermal denaturation of 6-HB formed with N36 mutant V38A; format: binding, HIV-1; details: CHR peptide + N36 V38A mutant, each 10 μM in PBS
# Protocol: as §2
# [11] = test system: HIV-1 NL4-3 V38A; assay: Inhibition of T20-resistant HIV-1 variants: V38A; format: cell-based
# Protocol: as §1
# [12] = test system: HIV-1 NL4-3 I37T/N43K; assay: Inhibition of T20-resistant HIV-1 variants: I37T/N43K; format: cell-based
# Protocol: as §1
# [13] = molecular target: T2, NHR peptide N36 (HIV-1 gp41); assay: Isothermal titration calorimetry (ITC) with N36; format: binding; details: 1 mM N36 injected into 100 μM peptide, 25°C, read-out: binding constant (K) (converted)
# Protocol: ITC assay was performed using an ITC200 Microcalorimeter instrument (MicroCal, USA) as described previously. In brief, 1 mM N36 dissolved in ddH20 was injected into the chamber containing 100 μM SC29EK or MT-SC29EK. The experiments were carried out at 25°C. The time between injections was 240 s and the stirring speed was 500 rpm. The heats of dilution were determined in control experiments by injecting N36 into ddH20 and subtracted from the heats produced in the corresponding peptide-peptide binding experiments. Data acquisition and analysis were performed using MicroCal Origin software (version 7.0).
# [14] = test system: HIV-1 NL4-3 N43K; assay: Inhibition of T20-resistant HIV-1 variants: N43K; format: cell-based
# Protocol: as §1
# [15] = test system: HIV-1 NL4-3 V38A/N42T; assay: Inhibition of T20-resistant HIV-1 variants: V38A/N42T; format: cell-based
# Protocol: as §1
# [16] = test system: HIV-1NL4-3 pseudovirus; format: cell-based; details: 100 TCID50, TZM-bl cells, 48 h, luciferase, mean ± SD of three independent experiments, SD, read-out: IC50 Entry
# Protocol: as §1
# [17] = test system: HIV-1 NL4-3 V38M; assay: Inhibition of T20-resistant HIV-1 variants: V38M; format: cell-based
# Protocol: as §1
# [18] = mean ± SD of three independent experiments, SD
# [19] = mean ± SD of three independent experiments
structure (smiles),measurement,setting,value
CC[C@H](C)[C@H](NC(=O)[C@H](CC(C)C)NC(=O)[C@H](CCC(=O)O)NC(=O)[C@H](CCC(=O)O)NC(=O)[C@@H](NC(=O)[C@H](CCCCN)NC(=O)[C@H](CCCCN)NC(=O)[C@@H](NC(=O)[C@H](Cc1ccc(O)cc1)NC(=O)[C@H](CCC(=O)O)NC(=O)[C@H](CCC(=O)O)NC(=O)[C@@H](NC(=O)[C@H](CCCCN)NC(=O)[C@H](CCCCN)NC(=O)[C@H](CC(=O)O)NC(=O)[C@H](Cc1c[nH]c2ccccc12)NC(=O)[C@H](CCC(=O)O)NC(=O)[C@H](CCC(=O)O)NC(=O)[C@H](Cc1c[nH]c2ccccc12)NC(C)=O)[C@@H](C)CC)[C@@H](C)O)[C@@H](C)CC)C(=O)N[C@@H](CCCCN)C(=O)N[C@@H](CCCCN)C(=O)N[C@@H](CO)C(=O)N[C@@H](CCC(=O)O)C(=O)N[C@@H](CCC(=O)O)C(=O)N[C@@H](CCC(N)=O)C(=O)N[C@@H](CCC(N)=O)C(=O)N[C@@H](CCCCN)C(=O)N[C@@H](CCCCN)C(=O)N[C@@H](CC(N)=O)C(N)=O [SC29EK] (Ac-WEEWDKKIEEYTKKIEELIKKSEEQQKKN-NH2),n-fold relative to the IC50 of the wild-type (WT) virus,[1],1
same,IC50,[1]; [18],1.8 ± 0.2 nM
same,IC50,[2],14000 nM
same,n-fold relative to the IC50 of the wild-type (WT) virus,[3],46.6
same,IC50,[3]; [18],83.8 ± 10.8 nM
same,IC50,[4],0.9 ± 0.2 nM
same,Tm (midpoint of the thermal unfolding transition) of 6-HB,[5],69.1 °C
same,n-fold relative to the IC50 of the wild-type (WT) virus,[6],6.5
same,IC50,[6]; [18],11.7 ± 0.7 nM
same,Tm of 6-HB,[7],61.1 °C
same,n-fold relative to the IC50 of the wild-type (WT) virus,[8],8.3
same,IC50,[8]; [18],15 ± 0.3 nM
same,peptide concentration reached during in vitro selection of resistant virus,[9],"2,650 nM"
same,Tm of 6-HB,[10],62.1 °C
same,n-fold relative to the IC50 of the wild-type (WT) virus,[11],9
same,IC50,[11]; [18],16.2 ± 1.9 nM
same,n-fold relative to the IC50 of the wild-type (WT) virus,[12],>138.9
same,IC50,[12]; [19],> 250 nM
same,Kd,[13],71.9 nM
same,n-fold relative to the IC50 of the wild-type (WT) virus,[14],>138.9
same,IC50,[14]; [19],> 250 nM
same,n-fold relative to the IC50 of the wild-type (WT) virus,[15],20.9
same,IC50,[15]; [18],37.7 ± 6.4 nM
same,IC50,[16],2.2 ± 0.3 nM
same,n-fold relative to the IC50 of the wild-type (WT) virus,[17],8.4
same,IC50,[17]; [18],15.1 ± 1.8 nM

# Source: paper PMC4046051, “Two M-T hook residues greatly improve the antiviral activity and resistance profile of the HIV-1 fusion inhibitor SC29EK” (Retrovirology, 2014)
